This passage reports EC50 results from patent US11618747B2, “LXR modulators with bicyclic core moiety” (OrsoBio, Inc., priority 2018, dated 2023).

Test [1] addresses T1, LXRβ ligand-binding domain (Homo sapiens, UniProt P55055, DUP175-175).
T1 construct: amino acids 156-461; NP009052; made in house; host or cells: E. coli
T1 sequence (P55055 with tags, fused parts or gaps DUP175-175 limits assumed): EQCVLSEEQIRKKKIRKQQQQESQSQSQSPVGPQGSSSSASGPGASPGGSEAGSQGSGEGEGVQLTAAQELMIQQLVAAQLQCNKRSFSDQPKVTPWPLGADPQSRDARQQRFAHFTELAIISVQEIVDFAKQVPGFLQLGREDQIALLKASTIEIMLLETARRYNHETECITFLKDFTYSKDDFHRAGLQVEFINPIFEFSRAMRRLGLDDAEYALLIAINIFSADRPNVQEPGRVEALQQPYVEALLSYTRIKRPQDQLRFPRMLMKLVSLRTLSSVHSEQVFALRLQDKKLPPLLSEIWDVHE
The experiment in a line: TR-FRETβ activity assay (NCoA3 coactivator peptide recruitment). The class given is biochemical. The note with it: TR-FRET, 1 μM 24(S)-25-epoxycholesterol prestimulation; read-out: FRETβ (EC50 range). The gist of the method:
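Inverse agonism assessed by loss of coactivator recruitment, read as TR-FRET 665/615 nm after 1 h equilibration at 4 °C, in triplicate. Ten-point titration from 50 μM to 0.002 μM against LXRβ LBD (76 nM, GST fusion) prestimulated with 1 μM 24(S)-25-epoxycholesterol, with 400 nM NCoA3 peptide, pH 6.8. Sulfonyl acetic acids kept as 20 mM DMSO stocks with 100 mM TFA.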
(TR-FRET usually uses a lanthanide donor and a delayed reading to cut background.)

Test [2] concerns the target T2, full length (FL) LXRα (Homo sapiens, UniProt Q13133).
T2 construct: the full length (FL) proteins of LXRα (amino acids 1-447); NP005684; expressed in transfected cells; host or cells: HEK293
T2 sequence (Q13133 1-447): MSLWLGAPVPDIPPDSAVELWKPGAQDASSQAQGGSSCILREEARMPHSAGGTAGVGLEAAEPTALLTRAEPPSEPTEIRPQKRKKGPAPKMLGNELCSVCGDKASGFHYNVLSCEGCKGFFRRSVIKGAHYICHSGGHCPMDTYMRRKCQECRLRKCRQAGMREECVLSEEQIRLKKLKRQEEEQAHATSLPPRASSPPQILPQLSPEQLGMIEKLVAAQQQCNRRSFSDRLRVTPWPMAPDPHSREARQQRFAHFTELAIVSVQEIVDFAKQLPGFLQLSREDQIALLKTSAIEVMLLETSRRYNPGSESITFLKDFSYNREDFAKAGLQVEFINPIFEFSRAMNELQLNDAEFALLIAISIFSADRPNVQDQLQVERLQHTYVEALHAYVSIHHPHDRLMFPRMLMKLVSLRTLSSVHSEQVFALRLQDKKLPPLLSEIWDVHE
The experiment in a line: LXR Gal4 reporter transient transfection assay (FL-M2H Gal4α). It counts as cell-based. The note with it: HEK293 cells, full length LXRα; read-out: FL-M2H Gal4α (EC50 range). The essentials:
(§1)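 Test compounds act for 16 h on transiently transfected HEK293 cells carrying AD-LXR and GAL4 BD-cofactor (SRC1 or NCoR) fusions. Firefly luciferase under GAL4 elements is quantified and corrected with Renilla luciferase for transfection efficiency.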

Test [3] deals with T3, full length (FL) LXRβ (Homo sapiens, UniProt P55055, DUP175-175).
T3 construct: the full length (FL) proteins of LXRα (amino acids 1-447); NP005684; NP009052; expressed in transfected cells; host or cells: HEK293
T3 sequence (P55055 with tags, fused parts or gaps DUP175-175): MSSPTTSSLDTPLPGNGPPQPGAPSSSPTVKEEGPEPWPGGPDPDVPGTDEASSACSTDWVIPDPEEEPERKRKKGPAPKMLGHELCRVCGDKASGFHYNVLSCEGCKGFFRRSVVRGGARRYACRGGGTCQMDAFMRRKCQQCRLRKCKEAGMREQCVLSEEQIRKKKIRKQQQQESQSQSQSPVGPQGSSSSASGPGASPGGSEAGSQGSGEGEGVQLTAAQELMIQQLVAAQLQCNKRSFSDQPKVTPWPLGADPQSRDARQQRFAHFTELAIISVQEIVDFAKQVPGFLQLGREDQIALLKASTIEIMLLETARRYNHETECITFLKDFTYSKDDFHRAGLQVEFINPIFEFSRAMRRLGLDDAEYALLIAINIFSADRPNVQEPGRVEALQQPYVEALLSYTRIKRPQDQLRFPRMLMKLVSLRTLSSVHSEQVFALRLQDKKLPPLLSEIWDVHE
The experiment in a line: LXR Gal4 reporter transient transfection assay (FL-M2H Gal4β). It counts as cell-based. The note with it: HEK293 cells, full length LXRβ; read-out: FL-M2H Gal4β (EC50 range). The essentials: as §1

Broadly, the EC50 is the concentration that produces a half-maximal response. Consider `Cc1ccc(S(=O)(=O)n2c(-c3cccc(-c4ccc(CN(C)C)cc4)c3)c(-c3ccsc3C#N)c3cc(F)ccc32)cc1` [8/1], for which the EC50 was 100 to 1000 nM in test [1], less than 100 nM in test [2] and less than 100 nM in test [3].
For the compound `O=C(O)c1ccc(-c2cccc(-c3c(-c4ccccc4C4COC4)c4cnccc4n3S(=O)(=O)c3ccc(C(F)F)cc3)c2)c(Cl)c1` [8/3], the EC50 in test [1] is 100 to 1000 nM; in test [2], 100 to 1000 nM; in test [3], less than 100 nM.
For the compound `N#Cc1ccccc1-c1c(-c2cccc(-c3ccc(C(=O)O)cc3Cl)c2)n(S(=O)(=O)c2ccc(C(F)F)cc2)c2cccnc12` [8/7], the values for the EC50 in test [1], in test [2] and in test [3] were 100 to 1000 nM, 100 to 1000 nM and less than 100 nM, respectively.
For the compound `N#Cc1sccc1-c1c(-c2cccc(-c3ccc(C(=O)NCCS(=O)(=O)O)cc3Cl)c2)n(S(=O)(=O)c2ccc(C(F)F)cc2)c2ccc(F)cc12` [10/3], the concentration for a half-maximal effect (EC50) in test [1], in test [2] and in test [3] was less than 100 nM in each case.
With `O=C(NCCS(=O)(=O)O)C1CC1c1cccc(-c2c(-c3c(Cl)cccc3Cl)c3cc(F)ccc3n2S(=O)(=O)c2ccc(C(F)F)cc2)c1` (stereo not drawn) [10/4], the concentration for a half-maximal effect (EC50) in test [1] is less than 100 nM; in test [2], 100 to 1000 nM; in test [3] it was less than 100 nM.
For the compound `Cc1ccc(S(=O)(=O)n2c(-c3cccc(-c4ccc(C(=O)O)cc4Cl)c3)c(-c3cccc(F)c3C#N)c3cc(F)ccc32)cc1` [11/1], the concentration giving a half-maximal response (EC50) in test [1], in test [2] and in test [3] was less than 100 nM each time.
On to `Cc1ccc(S(=O)(=O)n2c(-c3cccc(-c4ccc(C(=O)O)cc4Cl)c3)c(-c3cccc(C)c3C#N)c3cc(F)ccc32)cc1` [11/2], for which the concentration giving a half-maximal response (EC50) in test [1], in test [2] and in test [3] was less than 100 nM each time.
For `COc1cccc(-c2c(-c3cccc(-c4ccc(C(=O)O)cc4Cl)c3)n(S(=O)(=O)c3ccc(C)cc3)c3ccc(F)cc23)c1C#N` [11/3], the concentration for a half-maximal effect (EC50) in test [1], in test [2] and in test [3] was less than 100 nM in each case.
Consider `Cc1ccc(S(=O)(=O)n2c(-c3cccc(-c4ccc(C(=O)O)cc4Cl)c3)c(-c3ccc(C)cc3C#N)c3cc(F)ccc32)cc1` [11/4], for which the EC50 was 100 to 1000 nM in test [1], less than 100 nM in test [2] and less than 100 nM in test [3].
On to `Cc1ccc(S(=O)(=O)n2c(-c3cccc(-c4ccc(C(=O)O)cc4Cl)c3)c(-c3cc(C)ccc3C#N)c3cc(F)ccc32)cc1` [11/5], for which the 50% effective concentration (EC50) in test [1], in test [2] and in test [3] was less than 100 nM in each case.
Consider `Cc1ccc(S(=O)(=O)n2c(-c3cccc(-c4ccc(C(=O)O)cc4Cl)c3)c(-c3c(C)cccc3C#N)c3cc(F)ccc32)cc1` [11/6], for which the EC50 in test [1], in test [2] and in test [3] was less than 100 nM each time.
Regarding `N#Cc1sccc1-c1c(-c2cccc(-c3cc(F)c(C(=O)O)cc3Cl)c2)n(S(=O)(=O)c2ccc(CF)cc2)c2ccc(F)cc12` [11/7], the EC50 in test [1], in test [2] and in test [3] was less than 100 nM in each case.
With `N#Cc1sccc1-c1c(-c2cccc(-c3cc(F)c(C(=O)O)cc3Cl)c2)n(S(=O)(=O)c2ccc(C(F)F)cc2)c2ccc(F)cc12` [11/8], the EC50 in test [1], in test [2] and in test [3] was less than 100 nM throughout.
With `N#Cc1scnc1-c1c(-c2cccc(-c3cc(F)c(C(=O)O)cc3Cl)c2)n(S(=O)(=O)c2ccc(C(F)F)cc2)c2ccc(F)cc12` [11/9], the EC50 in test [1], in test [2] and in test [3] was less than 100 nM throughout.
In the case of `N#Cc1ccncc1-c1c(-c2cccc(-c3cc(F)c(C(=O)O)cc3Cl)c2)n(S(=O)(=O)c2ccc(C(F)F)cc2)c2ccc(F)cc12` [11/10], the EC50 in test [1], in test [2] and in test [3] was less than 100 nM in each case.
For `Cc1cccc(C)c1-c1c(-c2cccc(-c3ccc(C(=O)O)cc3Cl)c2)n(S(=O)(=O)c2ccc(C(F)F)cc2)c2ccc(F)cc12` [11/14], the EC50 in test [1], in test [2] and in test [3] was less than 100 nM in each case.
`O=C(O)c1ccc(-c2cccc(-c3c(-c4c(C(F)F)cccc4C(F)F)c4cc(F)ccc4n3S(=O)(=O)c3ccc(C(F)F)cc3)c2)c(Cl)c1` [11/15]: the 50% effective concentration (EC50) in test [1], in test [2] and in test [3] was less than 100 nM each time.
Take `N#Cc1sccc1-c1c(-c2cccc(-c3ccc(C(=O)O)cc3Cl)c2)n(S(=O)(=O)c2ccc(F)cc2)c2ccc(F)cc12` [11/18]: the figures for the EC50 in test [1], in test [2] and in test [3] were 100 to 1000 nM, less than 100 nM and less than 100 nM, respectively.
Consider `Cc1ccc(S(=O)(=O)n2c(-c3cccc(-c4ccc(C(=O)O)cc4Cl)c3)c(-c3ccsc3C#N)c3cc(F)ccc32)cc1F` [11/19], for which the figures for the EC50 in test [1], in test [2] and in test [3] were 100 to 1000 nM, less than 100 nM and less than 100 nM, respectively.
Consider `N#Cc1ccc(S(=O)(=O)n2c(-c3cccc(-c4ccc(C(=O)O)cc4Cl)c3)c(-c3ccsc3C#N)c3cc(F)ccc32)cc1` [11/20], for which the EC50 in test [1] is 100 to 1000 nM; in test [2] it was less than 100 nM; in test [3], less than 100 nM.
Take `O=C(O)c1ccc(-c2cccc(-c3c(-c4ccsc4C(F)F)c4cc(F)ccc4n3S(=O)(=O)c3ccc(Cl)cc3)c2)c(Cl)c1` [11/21]: the EC50 in test [1], in test [2] and in test [3] was less than 100 nM throughout.
Turning to `O=C(O)c1ccc(-c2cccc(-c3c(-c4ccsc4C(F)(F)F)c4cc(F)ccc4n3S(=O)(=O)c3ccc(C(F)F)cc3)c2)c(Cl)c1` [11/22], the EC50 in test [1], in test [2] and in test [3] was less than 100 nM throughout.
Consider `Cc1n[nH]c(C)c1-c1c(-c2cccc(-c3ccc(C(=O)O)cc3Cl)c2)n(S(=O)(=O)c2ccc(C(F)F)cc2)c2ccc(F)cc12` [11/24], for which the concentration for a half-maximal effect (EC50) in test [1], in test [2] and in test [3] was 100 to 1000 nM in each case.
As to `O=C(O)c1ccc(-c2cccc(-c3c(-c4cn[nH]c4C(F)(F)F)c4cc(F)ccc4n3S(=O)(=O)c3ccc(C(F)F)cc3)c2)c(Cl)c1` [11/25], the EC50 in test [1] was 100 to 1000 nM; in test [2] it was 100 to 1000 nM; in test [3], less than 100 nM.
As for `N#Cc1ccccc1-c1c(-c2cccc(-c3ccc(C(=O)O)c4c3OCO4)c2)n(S(=O)(=O)c2ccc(C(F)F)cc2)c2ccc(F)cc12` [11/28], the EC50 in test [1], in test [2] and in test [3] was less than 100 nM throughout.
In the case of `COc1cc(C(=O)O)ccc1-c1cccc(-c2c(-c3ccccc3C#N)c3cc(F)ccc3n2S(=O)(=O)c2ccc(C(F)F)cc2)c1` [11/29], the EC50 in test [1], in test [2] and in test [3] was less than 100 nM throughout.
For `N#Cc1cc(C(=O)O)ccc1-c1cccc(-c2c(-c3ccccc3C#N)c3cc(F)ccc3n2S(=O)(=O)c2ccc(C(F)F)cc2)c1` [11/30], the concentration giving a half-maximal response (EC50) in test [1], in test [2] and in test [3] was less than 100 nM in each case.
Consider `N#Cc1ccccc1-c1c(-c2cccc(-c3ccc(C(=O)O)cc3F)c2)n(S(=O)(=O)c2ccc(C(F)F)cc2)c2ccc(F)cc12` [11/31], for which the EC50 in test [1], in test [2] and in test [3] was less than 100 nM throughout.
